Columns and labels:
[1] = test system: MPTP-induced mice PD model; experiment: Footprint test in MPTP-induced mice PD model; type: in vivo; settings: selegiline 10 mg/kg orally twice daily 14 days; not statistically significant
striatal DA = experiment: HPLC-ECD striatal DA in MPTP mice; type: in vivo; settings: MPTP-treated mice, selegiline 10 mg/kg

C#CCN(C)[C@H](C)Cc1ccccc1 [selegiline]
Locomotion impairments in footprint test (time to cross corridor, stride length) [1]: attenuated these locomotion impairments | Increase in dopamine levels (striatal DA): 15.35%

Source: PMC11464467 (Journal of Advanced Research, 2023)
